pIC50: −log10 of the molar value.
What was measured:
[1] = molecular target: T1, Human Factor XIIa (Homo sapiens, UniProt P00748); test: Determination of Factor XIIa inhibitory activity in vitro (fluorogenic substrate H-DPro-Phe-Arg-AFC); assay type: biochemical; conditions: Human Factor XIIa (Enzyme Research Laboratories), 25° C., read-out: Human FXIIa IC50
T1 construct: purchased Enzyme Research Laboratories
T1 sequence (P00748 373-615 limits assumed): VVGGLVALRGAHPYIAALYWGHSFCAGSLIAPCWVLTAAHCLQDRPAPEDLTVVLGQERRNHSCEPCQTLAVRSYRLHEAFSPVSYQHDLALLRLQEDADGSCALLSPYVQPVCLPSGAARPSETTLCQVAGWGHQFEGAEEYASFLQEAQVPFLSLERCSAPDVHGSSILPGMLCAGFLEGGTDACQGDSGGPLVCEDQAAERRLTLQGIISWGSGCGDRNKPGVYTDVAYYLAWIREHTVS
T1 sequence (P00748 20-372 partner limits assumed): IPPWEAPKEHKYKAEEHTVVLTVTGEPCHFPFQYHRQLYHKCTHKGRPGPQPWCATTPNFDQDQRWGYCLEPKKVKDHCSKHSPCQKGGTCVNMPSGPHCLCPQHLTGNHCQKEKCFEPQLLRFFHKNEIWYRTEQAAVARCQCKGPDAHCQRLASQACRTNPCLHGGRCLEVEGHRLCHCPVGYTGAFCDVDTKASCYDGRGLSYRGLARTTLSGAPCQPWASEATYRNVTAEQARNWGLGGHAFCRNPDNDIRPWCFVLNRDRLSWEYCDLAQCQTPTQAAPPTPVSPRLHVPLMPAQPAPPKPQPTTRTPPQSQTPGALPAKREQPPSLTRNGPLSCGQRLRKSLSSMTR
Summary of the method: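 In vitro inhibition of human Factor XIIa (sourced from Enzyme Research Laboratories) was measured by incubating the enzyme at 25° C. with the fluorogenic substrate H-DPro-Phe-Arg-AFC across a range of test compound concentrations. The initial reaction rate, taken as residual enzyme activity, was followed by the […], and IC50 values were calculated.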

[2] = molecular target: T2, Human FXIa (Homo sapiens, UniProt P03951); test: Determination of FXIa inhibitory activity in vitro (fluorogenic substrate Z-Gly-Pro-Arg-AFC); assay type: biochemical; conditions: Selectivity, Human FXIa (Enzyme Research Laboratories), 25° C.
T2 construct: purchased Enzyme Research Laboratories
T2 sequence (P03951 388-625 limits assumed): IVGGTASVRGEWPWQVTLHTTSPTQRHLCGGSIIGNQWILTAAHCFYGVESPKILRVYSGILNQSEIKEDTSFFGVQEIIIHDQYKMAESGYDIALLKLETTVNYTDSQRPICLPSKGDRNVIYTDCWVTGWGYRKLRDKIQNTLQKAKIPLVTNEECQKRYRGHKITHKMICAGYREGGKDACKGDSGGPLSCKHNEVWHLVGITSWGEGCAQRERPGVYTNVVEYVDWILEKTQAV
T2 sequence (P03951 19-387 partner limits assumed): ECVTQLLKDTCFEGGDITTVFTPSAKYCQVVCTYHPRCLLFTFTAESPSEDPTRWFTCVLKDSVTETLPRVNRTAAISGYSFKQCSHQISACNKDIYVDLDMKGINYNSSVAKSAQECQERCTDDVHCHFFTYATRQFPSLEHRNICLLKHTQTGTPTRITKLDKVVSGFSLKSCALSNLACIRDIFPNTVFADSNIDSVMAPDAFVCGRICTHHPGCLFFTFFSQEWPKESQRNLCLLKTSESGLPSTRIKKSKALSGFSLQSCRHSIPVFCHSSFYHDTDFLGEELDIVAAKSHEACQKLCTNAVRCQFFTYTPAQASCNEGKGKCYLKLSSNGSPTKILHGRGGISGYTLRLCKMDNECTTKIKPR

Compound	pIC50 [1]	pIC50 [2]
Nc1nccc2cc(CNC(=O)c3cc(Cl)cnc3NCC3CCN(Cc4cccnc4)CC3)ccc12 [Example 1.63, N-[(1-amino-6-isoquinolyl)methyl]-5-chloro-2-[[1-(3-pyridylmethyl)-4-piperidyl]methylamino]pyridine-3-carboxamide]	6.00 to 6.52	< 4.40
CC(C)N1CCCC(CNc2ncc(Cl)cc2C(=O)NCc2ccc3c(N)nccc3c2)C1 (stereo not drawn) [Example 1.64, N-[(1-amino-6-isoquinolyl)methyl]5-chloro-2-[(1-isopropyl-3-piperidyl)methylamino]pyridine-3-carboxamide]	6.00 to 6.52	< 4.40
Nc1nccc2cc(CNC(=O)c3cc(Cl)cnc3NCC3CCN(Cc4cscn4)CC3)ccc12 [Example 1.65]	5.00 to 5.52	< 4.40
Nc1nccc2cc(CNC(=O)c3cc(Cl)cnc3NCC3CCN(Cc4nccs4)CC3)ccc12 [Example 1.66]	5.00 to 5.52	< 4.40
Cn1nccc1CN1CCC(CNc2ncc(Cl)cc2C(=O)NCc2ccc3c(N)nccc3c2)CC1 [Example 1.67]	5.52 to 6.00	< 4.40
Cn1cc(CN2CCC(CNc3ncc(Cl)cc3C(=O)NCc3ccc4c(N)nccc4c3)CC2)cn1 [Example 1.68]	6.00 to 6.52	< 4.40
CC(C)N1CCCC(C(=O)Nc2ncc(Cl)cc2C(=O)NCc2ccc3c(N)nccc3c2)C1 (stereo not drawn) [Example 1.69]	5.00 to 5.52	< 4.40
Nc1nccc2cc(CNC(=O)c3cc(Cl)cnc3NC[C@@H]3CCC(=O)N3)ccc12 [Example 1.70]	4.40 to 5.00	< 4.40
CC(Nc1ncc(Cl)cc1C(=O)NCc1ccc2c(N)nccc2c1)C1CCN(C)CC1 (stereo not drawn) [Example 1.71]	6.00 to 6.52	< 4.40
Nc1nccc2cc(CNC(=O)c3cc(Cl)cnc3NC[C@H]3CCC(=O)N3)ccc12 [Example 1.72, R—N-[(1-aminoisoquinoline-6-yl)methyl)-5-chloro-2-(((5-oxopyrrolidin-2-yl)methyl)amino)nicotinamide]	4.40 to 5.00	5.50
CN1CCC(CNc2ncccc2C(=O)NCc2ccc3c(N)nccc3c2)CC1 [Example 4.01, N-((1-aminoisoquinolin-6-yl)methyl)-2-(((1-methylpiperidin-4-yl)methyl)amino)nicotinamide]	5.52 to 6.00	< 4.40
Cc1cnc(NCC2CCN(C)CC2)c(C(=O)NCc2ccc3c(N)nccc3c2)c1 [Example 4.02]	6.00 to 6.52	< 4.40
CN1CCC(CNc2nccnc2C(=O)NCc2ccc3c(N)nccc3c2)CC1 [Example 4.03, N-((1-aminoisoquinolin-6-yl)methyl)-3-(((1-methylpiperidin-4-yl)methyl)amino)pyrazine-2-carboxamide]	6.00 to 6.52	< 4.40
CN1CCC(CNc2cncc(C(=O)NCc3ccc4c(N)nccc4c3)n2)CC1 [Example 4.04]	5.52 to 6.00	< 4.40
CN1CCC(CNc2cnc(C(=O)NCc3ccc4c(N)nccc4c3)cn2)CC1 [Example 4.05]	5.00 to 5.52	< 4.40
COc1ccc(C(=O)NCc2ccc3c(N)nccc3c2)c(NCC2CCN(C)CC2)n1 [Example 4.06]	5.52 to 6.00	< 4.40
CN1CCC(CNc2nc(Cl)ccc2C(=O)NCc2ccc3c(N)nccc3c2)CC1 [Example 4.07]	6.00 to 6.52	4.63
CN1CCC(CNc2nccc(Cl)c2C(=O)NCc2ccc3c(N)nccc3c2)CC1 [Example 4.08]	4.40 to 5.00	< 4.40
CN1CCC(CNc2ncc(Br)cc2C(=O)NCc2ccc3c(N)nccc3c2)CC1 [Example 4.09]	> 6.52	< 4.40
CN1CCC(CNc2ncc(C3CC3)cc2C(=O)NCc2ccc3c(N)nccc3c2)CC1 [Example 4.10]	6.00 to 6.52	< 4.40
CN1CCC(CNc2ncc(-c3cccnc3)cc2C(=O)NCc2ccc3c(N)nccc3c2)CC1 [Example 4.11, N-((1-aminoisoquinolin-6-yl)methyl)-6-(((1-methylpiperidin-4-yl)methyl)amino)-[3,3′-bipyridine]-5-carboxamide]	6.00 to 6.52	< 4.40
COc1cnc(NCC2CCN(C)CC2)c(C(=O)NCc2ccc3c(N)nccc3c2)c1 [Example 4.12]	5.52 to 6.00	< 4.40
Cc1ccc(C(=O)NCc2ccc3c(N)nccc3c2)c(NCC2CCN(C)CC2)n1 [Example 4.13]	6.00 to 6.52	< 4.40
Cc1ccnc(NCC2CCN(C)CC2)c1C(=O)NCc1ccc2c(N)nccc2c1 [Example 4.14]	4.40 to 5.00	< 4.40
CN1CCC(CNc2nc(-c3ccccc3)ccc2C(=O)NCc2ccc3c(N)nccc3c2)CC1 [Example 4.15]	5.52 to 6.00	< 4.40
CN1CCC(CNc2nc(-c3cccnc3)ccc2C(=O)NCc2ccc3c(N)nccc3c2)CC1 [Example 4.16]	6.00 to 6.52	< 4.40

Compound	pIC50 [1]	pIC50 [2]
CN1CCC(CNc2nc(C3CC3)ccc2C(=O)NCc2ccc3c(N)nccc3c2)CC1 [Example 4.17]	5.52 to 6.00	< 4.40
CN1CCC(CNc2ncc(-c3ccccc3)nc2C(=O)NCc2ccc3c(N)nccc3c2)CC1 [Example 4.18]	6.00 to 6.52	4.63
CN1CCC(CNc2nc(Cl)c(Cl)cc2C(=O)NCc2ccc3c(N)nccc3c2)CC1 [Example 4.19]	> 6.52	< 4.40
CN1CCC(CNc2ncc(-c3cnn(C)c3)nc2C(=O)NCc2ccc3c(N)nccc3c2)CC1 [Example 4.20]	6.00 to 6.52	4.90
Cc1cc(C(=O)NCc2ccc3c(N)nccc3c2)c(NCC2CCN(C)CC2)nc1C [Example 4.21]	6.00 to 6.52	< 4.40
Nc1nccc2cc(CNC(=O)c3nccnc3Nc3ccc(N4CCNCC4)cc3)ccc12 [Example 4.22]	4.40 to 5.00	< 4.40
CN1CCc2c(cccc2Nc2nccnc2C(=O)NCc2ccc3c(N)nccc3c2)C1 [Example 4.23]	6.00 to 6.52	< 4.40
CN1CCc2cc(Nc3nccnc3C(=O)NCc3ccc4c(N)nccc4c3)ccc2C1 [Example 4.24]	6.00 to 6.52	< 4.40
Nc1nccc2cc(CNC(=O)c3nccnc3NCC3CCN(CCO)CC3)ccc12 [Example 4.25]	6.00 to 6.52	< 4.40
Nc1nccc2cc(CNC(=O)c3cnc(N4CCN(c5ccncc5)CC4)c(Cl)c3)ccc12 [Example 8.08]	4.40 to 5.00	< 4.40
CN(CC1CCN(c2ccncc2)CC1)c1ncc(C(=O)NCc2ccc3c(N)nccc3c2)cc1Cl [Example 8.09, N-[(1-amino-6-isoquinolyl)methyl]-5-chloro-6-[methyl-[[1-(4-pyridyl)-4-piperidyl]methyl]amino]pyridine-3-carboxamide]	5.52 to 6.00	< 4.40
N#Cc1cccc(CNc2ncc(C(=O)NCc3ccc4c(N)nccc4c3)cc2Cl)c1 [Example 11.28]	4.40 to 5.00	< 4.40
COCCNc1ncc(C(=O)NCc2ccc3c(N)nccc3c2)cc1Cl [Example 11.29]	4.40 to 5.00	< 4.40
CN(C)CCNc1ncc(C(=O)NCc2ccc3c(N)nccc3c2)cc1Cl [Example 11.30]	4.40 to 5.00	< 4.40
Nc1nccc2cc(CNC(=O)c3cnc(NCCn4cncn4)c(Cl)c3)ccc12 [Example 11.31]	4.40 to 5.00	< 4.40
CN1C(C)(C)CC(Nc2ncc(C(=O)NCc3ccc4c(N)nccc4c3)cc2Cl)CC1(C)C [Example 11.32]	4.40 to 5.00	< 4.40
CN1CCC(Nc2ncc(C(=O)NCc3ccc4c(N)nccc4c3)cc2Cl)CC1 [Example 11.33]	4.40 to 5.00	< 4.40
Nc1nccc2cc(CNC(=O)c3cnc(NC4CCNCC4)c(Cl)c3)ccc12 [Example 11.34]	4.40 to 5.00	< 4.40
CN1CCC(Nc2ncc(C(=O)NCc3ccc4c(N)nccc4c3)cc2Cl)CC1=O (stereo not drawn) [Example 11.35]	4.40 to 5.00	< 4.40
CC(C)N1CCC(Nc2ncc(C(=O)NCc3ccc4c(N)nccc4c3)cc2Cl)CC1 [Example 11.36]	5.00 to 5.52	< 4.40
CC(C)CN1CCC(Nc2ncc(C(=O)NCc3ccc4c(N)nccc4c3)cc2Cl)CC1 [Example 11.37]	4.40 to 5.00	< 4.40
CS(=O)(=O)N1CCC(Nc2ncc(C(=O)NCc3ccc4c(N)nccc4c3)cc2Cl)CC1 [Example 11.38]	4.40 to 5.00	< 4.40
CC(=O)N1CCC(Nc2ncc(C(=O)NCc3ccc4c(N)nccc4c3)cc2Cl)CC1 [Example 11.39]	4.40 to 5.00	< 4.40
Nc1nccc2cc(CNC(=O)c3cnc(NC4CCN(c5nccs5)CC4)c(Cl)c3)ccc12 [Example 11.40]	4.40 to 5.00	< 4.40
COCCN1CCC(Nc2ncc(C(=O)NCc3ccc4c(N)nccc4c3)cc2Cl)CC1 [Example 11.41]	4.40 to 5.00	< 4.40
